≈ marks a conversion by molar mass, not a printed value.
tested on: Mycobacterium tuberculosis; assay: Bacteriostatic activity against Mycobacterium bovis BCG after 7 days by Alamar Blue assay; format: functional; conditions: variant bovis BCG, 168 h

Row | SMILES | MIC [µM]
1 | N[C@@H](CSC(Cl)=C(Cl)Cl)C(=O)N[C@@H]1[C@@H](O)[C@H](O)[C@@H](CO)O[C@@H]1SC1CCCCC1 | 62.5 (≈ 31.9 µg/mL)
2 | N[C@@H](CSC(Cl)=C(Cl)Cl)C(=O)N[C@@H]1[C@@H](O)[C@H](O)[C@@H](CO)O[C@H]1SC1CCCCC1 | 125 (≈ 63.7 µg/mL)
3 | CC(C)(C)OC(=O)N[C@@H](CSC(Cl)=C(Cl)Cl)C(=O)N[C@@H]1[C@@H](O)[C@H](O)[C@@H](CO)O[C@@H]1SC1CCCCC1 | 500 (≈ 305 µg/mL)
4 | CC(C)(C)OC(=O)N[C@@H](CSC(Cl)=C(Cl)Cl)C(=O)N[C@@H]1[C@@H](O)[C@H](O)[C@@H](CO)O[C@H]1SC1CCCCC1 | ≥ 1000
